Assay results taken from PubChem BioAssay (NCI).
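Test compounds were applied to cells in 96-well plates for 48 hours at 5 doses. Definition used: TGI = concentration required for complete inhibition of growth.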

Legend:
Assay in all cases: inhibition of tumour cell growth, NCI panel, 48 h
[1] = system: 786-0 renal
[2] = system: A498 renal
[3] = system: A549 NSCLC
[4] = system: ACHN renal
[5] = system: CCRF-CEM leukemia
[6] = system: COLO 205 colon
[7] = system: EKVX NSCLC
[8] = system: HCC-2998 colon
[9] = system: HCT-116 colon
[10] = system: HCT-15 colon
[11] = system: HL-60(TB) leukemia
[12] = system: HOP-62 NSCLC
[13] = system: HOP-92 NSCLC
[14] = system: HS 578T breast
[15] = system: HT29 colon
[16] = system: IGROV1 ovarian
[17] = system: K-562 leukemia
[18] = system: KM12 colon
[19] = system: LOX IMVI melanoma
[20] = system: M14 melanoma
[21] = system: MALME-3M melanoma
[22] = system: MCF7 breast
[23] = system: MDA-MB-231 breast
[24] = system: MDA-MB-435
[25] = system: MDA-N
[26] = system: MOLT-4 leukemia
[27] = system: NCI-H226 lung
[28] = system: NCI-H23 lung
[29] = system: NCI-H522 lung
[30] = system: NCI/ADR-RES ovarian
[31] = system: OVCAR-3 ovarian
[32] = system: OVCAR-4 ovarian
[33] = system: OVCAR-5 ovarian
[34] = system: OVCAR-8 ovarian
[35] = system: PC-3 prostate
[36] = system: RPMI-8226 leukemia
[37] = system: RXF 393 renal
[38] = system: SF-295 CNS
[39] = system: SF-539 CNS
[40] = system: SK-MEL-2 melanoma
[41] = system: SK-MEL-5 melanoma
[42] = system: SK-OV-3 ovarian
[43] = system: SN12C renal
[44] = system: SR leukemia
[45] = system: T-47D breast
[46] = system: TK-10 renal
[47] = system: U251 CNS
[48] = system: UACC-257 melanoma
[49] = system: UACC-62 melanoma
[50] = system: UO-31 renal
[51] = system: CAKI-1 renal
[52] = system: DU-145 prostate
[53] = system: NCI-H460 lung
[54] = system: SF-268 CNS
[55] = system: SK-MEL-28 melanoma
[56] = system: SNB-19 CNS
[57] = system: SNB-75 CNS
[58] = system: SW-620 colon

For `COC(=O)/C=C/c1ccc2c(c1)CC1(Cc3ccccc3C1)C2`, the TGI [1] was greater than 100 µM, the TGI [2] was greater than 100 µM and the TGI [3] was greater than 100 µM. For the same molecule, the TGI [4] was greater than 100 µM, the TGI [5] was 57.3 µM and the TGI [6] was greater than 100 µM. For the same molecule, the TGI [7] was greater than 100 µM, the TGI [8] was greater than 100 µM and the TGI [9] was 1.34 µM. It also gave a TGI [10] greater than 100 µM, a TGI [11] of 67.3 µM and a TGI [12] greater than 100 µM. For the same molecule, the TGI [13] was greater than 100 µM, the TGI [14] was 80.4 µM and the TGI [15] was greater than 100 µM. It also gave a TGI [16] greater than 100 µM, a TGI [17] greater than 100 µM and a TGI [18] greater than 100 µM. For the same molecule, the TGI [19] was greater than 100 µM, the TGI [20] was greater than 100 µM and the TGI [21] was greater than 100 µM. It also gave a TGI [22] greater than 100 µM, a TGI [23] greater than 100 µM and a TGI [24] greater than 100 µM. For the same molecule, the TGI [25] was greater than 100 µM, the TGI [26] was greater than 100 µM and the TGI [27] was greater than 100 µM. The TGI [28] was greater than 100 µM, the TGI [29] was greater than 100 µM and the TGI [30] was greater than 100 µM. It also gave a TGI [31] greater than 100 µM, a TGI [32] greater than 100 µM and a TGI [33] greater than 100 µM. It also gave a TGI [34] greater than 100 µM, a TGI [35] greater than 100 µM and a TGI [36] greater than 100 µM. The TGI [37] was greater than 100 µM, the TGI [38] was greater than 100 µM and the TGI [39] was greater than 100 µM. The TGI [40] was greater than 100 µM, the TGI [41] was greater than 100 µM and the TGI [42] was greater than 100 µM. The TGI [43] was greater than 100 µM, the TGI [44] was 58.1 µM and the TGI [45] was greater than 100 µM. It also gave a TGI [46] greater than 100 µM, a TGI [47] greater than 100 µM and a TGI [48] greater than 100 µM. The TGI [49] was greater than 100 µM and the TGI [50] was greater than 100 µM.
Work on `CC1(C)[C@@H]2CC[C@@]1(C)[C@H](O)[C@@H]2SCc1ccccc1` yielded a TGI [1] of 32.9 µM, a TGI [2] of 0.0578 µM and a TGI [3] of 48.6 µM. The TGI [4] was 24 µM, the TGI [51] was 43.1 µM and the TGI [5] was 96.6 µM. For the same molecule, the TGI [6] was 34.1 µM, the TGI [52] was 40.6 µM and the TGI [7] was 34.2 µM. For the same molecule, the TGI [8] was 36.6 µM, the TGI [9] was 44.4 µM and the TGI [10] was 29.7 µM. The TGI [11] was 54.3 µM, the TGI [12] was 33 µM and the TGI [13] was 28.7 µM. It also gave a TGI [14] of 30.7 µM, a TGI [15] of 29.6 µM and a TGI [16] of 37.4 µM. It also gave a TGI [17] greater than 100 µM, a TGI [18] of 36.4 µM and a TGI [19] of 36.6 µM. For the same molecule, the TGI [20] was 30.1 µM, the TGI [23] was 33 µM and the TGI [24] was 33.2 µM. The TGI [25] was 43.4 µM, the TGI [26] was 49.7 µM and the TGI [27] was 39.4 µM. It also gave a TGI [28] of 29.1 µM, a TGI [53] of 39.9 µM and a TGI [29] of 29.3 µM. The TGI [30] was 33 µM, the TGI [31] was 31.8 µM and the TGI [32] was 26.6 µM. For the same molecule, the TGI [33] was 33.1 µM, the TGI [34] was 37.2 µM and the TGI [35] was 50.4 µM. The TGI [36] was greater than 100 µM, the TGI [37] was 33 µM and the TGI [54] was 32.6 µM. For the same molecule, the TGI [38] was 33 µM, the TGI [39] was 34.6 µM and the TGI [40] was 33.7 µM. The TGI [55] was 38.4 µM, the TGI [41] was 29.1 µM and the TGI [42] was 44.9 µM. The TGI [43] was 34.5 µM, the TGI [56] was 31.7 µM and the TGI [57] was 49.1 µM. The TGI [44] was greater than 100 µM, the TGI [58] was 74.9 µM and the TGI [45] was 62.8 µM. The TGI [46] was 57.8 µM, the TGI [47] was 31.7 µM and the TGI [48] was 32.5 µM. For the same molecule, the TGI [49] was 22.2 µM and the TGI [50] was 35.4 µM.
